Experimental data from patent publication EP2790511B1 (Merck Sharp & Dohme Corp., priority 2011, dated 2013).

target: T1, hROMK (hKir1.1) (Homo sapiens, UniProt P48048); assay: Thallium Flux Assay; assay type: cell-based; details: HEK293 cells stably expressing hROMK (hKir1.1), FLIPR-Tetra; read-out: Thallium Flux IC50
T1 construct: expressed in transfected cells
T1 sequence (P48048 1-391): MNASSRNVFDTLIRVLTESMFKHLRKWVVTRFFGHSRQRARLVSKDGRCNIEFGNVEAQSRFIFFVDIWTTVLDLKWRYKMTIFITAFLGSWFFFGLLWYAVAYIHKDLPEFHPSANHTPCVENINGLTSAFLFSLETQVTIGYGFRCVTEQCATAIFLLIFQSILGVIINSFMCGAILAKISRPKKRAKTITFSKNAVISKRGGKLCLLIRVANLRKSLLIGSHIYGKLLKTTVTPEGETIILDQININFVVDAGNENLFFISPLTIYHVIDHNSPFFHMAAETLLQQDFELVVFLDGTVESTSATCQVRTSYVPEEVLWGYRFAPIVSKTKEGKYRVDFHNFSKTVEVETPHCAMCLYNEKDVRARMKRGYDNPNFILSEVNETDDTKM
Procedure: Cell Culture Conditions- HEK293 cells stably expressing hROMK (hKir1.1) were grown at 37°C in a 10%CO2 humidified incubator in complete growth media: Dulbecco's Modified Eagle Medium supplemented with non-essential amino acids, Penicillin/Streptomycin/Glutamine, G418 and FBS. At >80% confluency, aspirate the media from the flask and rinse with 10 mL Calcium/Magnesium-free PBS. […] To dislodge the cell, gently bang the side of the flask with your hand. Triturate the cells completely and then transfer the cells to 25 mL complete media. Centrifuge at 1,500 rpm for 6 min followed by resuspension in complete growth media and determine cell concentration. […] Under ideal growth conditions and appropriate tissue culture practices, this cell line is stable for 40-45 passages.
• FluxOR™ Reagent (Component A) • FluxOR™ Assay Buffer (Component B) - 10X Concentrate • PowerLoad™ Concentrate (Component C) - 100X Concentrate • Probenecid (Component D) - Lyophilized sample is kept at -20°C. Water soluble, 100X after solubilization in 1 mL water. […] Store at 4°C. • Thallium sulfate (Tl2SO4) Concentrate (Component G) - 50 mM in water. Store at 4°C • DMSO (dimethyl sulfoxide, Component H) - 1 mL (100%)
• 1000X FluxOR™ Reagent: Reconstitute a vial of component A in 100 µl DMSO; Mix well; Store 10 µl aliquots at -20°C • 1X FluxOR™ Assay Buffer: Dilute Component B 10-fold with water; Adjust pH to 7.4 with Hepes/NaOH; Filter and store at 4°C • Probenecid/Assay Buffer: 100 mL of 1X FluxOR™ Assay Buffer; 1 mL of reconstituted component D; Store at 4°C • Loading Buffer (per microplate): 10 µl 1000X FluxOR™ Reagent; 100 µl component C; 10 mL Probenecid/Assay Buffer • Compound Buffer (per microplate): 20 mL Probenecid/Assay Buffer; 0.3 mM ouabain (10 mM ouabain in water can be stored in amber bottle/aluminum foil at room temperature); Test compound • 1X FluxOR™Chloride-Free Buffer: Prepare 1X working solution in water. Can be stored at room temperature • Stimulant Buffer (prepared at 5X final concentration in 1X FluxOR™Chloride-Free Buffer): 7.5 mM Thallium sulfate and 0.75 mM Potassium sulfate (to give a final assay concentration of 3 mM Thallium/ 0.3 mM Potassium). Store at 4°C when not in use. If kept sterile, this solution is good for months.
Assay protocol- The ROMK channel functional thallium flux assay is performed in 384 wells, using the FLIPR-Tetra instrument. HEK-hKir1.1 cells are seeded in Poly-D-Lysine microplates and kept in a 37°C-10%CO2 incubator overnight. On the day of the experiment, the growth media is replaced with the FluxOR™ reagent loading buffer and incubated, protected from light, at ambient temperature (23-25°C) for 90 min. The loading buffer is replaced with assay buffer ± test compound followed by 30 min incubation at ambient temperature, where the Thallium/Potassium stimulant is added to the microplate.
• 1. Seed HEK-hKir1.1 cells (50 µl at 20,000 cells/well) in 384-well PDL coated Microplates • 2. Allow cells to adhere overnight in humidified 37°C/10%CO2 incubator • 3. Completely remove cell growth media from microplate and replace with 25 µl loading buffer • 4. Incubate Microplate at room temperature, protected form light, for 90 min • 5. Remove loading buffer and replace with 25 µl 1x Assay Buffer ± test compound. • 6. Incubate microplate at room temperature, protected form light, for 30 min • 7. […] Excitation = 400 nm, Emission = 460 & 580 nm. Collect data for ∼ 10 min.
Data Calculation- The fluorescence intensity of wells containing 3 µM of a standard control ROMK inhibitor of the present invention is used to define the ROMK-sensitive component of thallium flux. Fluorescence in the presence of test compounds is normalized to control values to provide % fluorescence change.

Compound | IC50 [nM]
O=C1OCc2cc([C@@H]3CN4CCN(C(=O)Cc5ccc(-n6cnnn6)cn5)C[C@H]4CO3)ccc21 [Example 27, 5-[(3R,9aS)-8-{[5-(1H-tetrazol-1-yl)pyridin-2-yl]acetyl}octahydropyrazino[2,1-c][1,4]oxazin-3-yl]-2-benzofuran-1(3H)-one] | 100
O=C1OCc2cc([C@H]3CN4CCN(C(=O)Cc5ccc(-n6cnnn6)cn5)C[C@H]4CO3)ccc21 [Example 28, 5-[(3S,9aS)-8-{[5-(1H-tetrazol-1-yl)pyridin-2-yl]acetyl}octahydropyrazino[2,1-c][1,4]oxazin-3-yl]-2-benzofuran-1(3H)-one] | 180
Cc1nc(-n2cnnn2)ccc1CC(=O)N1CCN2C[C@@H](c3ccc4c(c3)CCOC4=O)OC[C@@H]2C1 [Example 30, 6-[(3R,9aS)-8-{[2-methyl-6-(1H-tetrazol-1-yl)pyridin-3-yl]acetyl}octahydropyrazino[2,1-c][1,4]oxazin-3-yl]-3,4-dihydro-1H-isochromen-1-one] | 160
Cc1c([C@H]2CN3CCN(C(=O)Cc4ccc(-n5cnnn5)cn4)C[C@@H]3CO2)ccc(F)c1C#N [Example 31, 6-fluoro-2-methyl-3-[(3S,9aR)-8-{[5-(1H-tetrazol-1-yl)pyridin-2-yl]acetyl}octahydropyrazino[2,1-c][1,4]oxazin-3-yl]benzonitrile] | 160
COc1cc([C@H]2CN3CCN(C(=O)Cc4ccc(-n5cnnn5)nc4)C[C@@H]3CO2)ccc1C#N [Example 39, 2-methoxy-4-[(3S,9aR)-8-{[6-(1H-tetrazol-1-yl)pyridin-3-yl]acetyl}octahydropyrazino[2,1-c][1,4]oxazin-3-yl]benzonitrile] | 260
COc1cc([C@@H]2CN3CCN(C(=O)Cc4ccc(-n5cnnn5)nc4)C[C@@H]3CO2)ccc1C#N [Example 40, 2-methoxy-4-[(3R,9aR)-8-{[6-(1H-tetrazol-1-yl)pyridin-3-yl]acetyl}octahydropyrazino[2,1-c][1,4]oxazin-3-yl]benzonitrile] | 70
COc1cc([C@@H]2CN3CCN(C(=O)Cc4ccc(-n5cnnn5)nc4)C[C@H]3CO2)ccc1C#N [Example 41, 2-methoxy-4-[(3R,9aS)-8-{[6-(1H-tetrazol-1-yl)pyridin-3-yl]acetyl}octahydropyrazino[2,1-c][1,4]oxazin-3-yl]benzonitrile] | 230
Cc1cc(-n2cnnn2)ncc1CC(=O)N1CCN2C[C@@H](c3ccc4c(c3)CCOC4=O)OC[C@@H]2C1 [Example 44, 6-[(3R,9aS)-8-{[4-methyl-6-(1H-tetrazol-1-yl)pyridin-3-yl]acetyl}octahydropyrazino[2,1-c][1,4]oxazin-3-yl]-3,4-dihydro-1H-isochromen-1-one] | 170
COc1cc([C@@H]2CN3CCN(C(=O)Cc4cnc(-n5cnnn5)cc4C)C[C@@H]3CO2)ccc1C#N [Example 45, 2-methoxy-4-[(3R,9aR)-8-{[4-methyl-6-(1H-tetrazol-1-vl)pvridin-3-yl]acetyl}octahydropyrazino[2,1-c][1,4]oxazin-3-yl]benzonitrile] | 250
O=C1OCc2c1ccc([C@H]1CN3CCN(C(=O)Cc4ccc(-n5cnnn5)nc4)C[C@H]3CO1)c2Br [Example 48, 4-bromo-5-[(3S,9aS)-8-{[6-(1H-tetrazol-1-yl)pyridin-3-yl]acetyl}octahydropyrazino[2,1-c][1,4]oxazin-3-yl]-2-benzofuran-1(3H)-one] | 150
N#Cc1c(F)ccc([C@@H]2CN3CCN(C(=O)Cc4ccc(-n5cnnn5)nc4)C[C@H]3CO2)c1Cl [Example 51, 2-chloro-6-fluoro-3-[(3R,9aS)-8-{[6-(1H-tetrazol-1-yl)pyridin-3-yl]acetyl}octahydropyrazino[2,1-c][1,4]oxazin-3-yl]benzonitrile] | 50

same assay, conditions: Thallium Flux IC50

Compound | IC50 [nM]
Cc1c([C@H]2CN3CCN(C(=O)Cc4ccc(-n5cnnn5)nc4)C[C@@H]3CO2)ccc2c1COC2=O [Example 24, 4-methyl-5-[(3S,9aR)-8-{[6-(1H-tetrazol-1-yl)pyridin-3-yl]acetyl}octahydropyrazino[2,1-c][1,4]oxazin-3-yl]-2-benzofuran-1(3H)-one] | 160
Cc1c([C@H]2CN3CCN(C(=O)Cc4ccc(-n5cnnn5)cn4)C[C@H]3CO2)ccc2c1COC2=O [Example 29, 4-methyl-5-[(3S,9aS)-8-{[5-(1H-tetrazol-1-yl)pyridin-2-yl]acetyl}octahydropyrazino[2,1-c][1,4]oxazin-3-yl]-2-benzofuran-1(3H)-one] | 110
Cc1c([C@@H]2CN3CCN(C(=O)Cc4ccc(-n5cnnn5)cn4)C[C@@H]3CO2)ccc(F)c1C#N [Example 32, 6-fluoro-2-methyl-3-[(3R,9aR)-8-{[5-(1H-tetrazol-1-yl)pyridin-2-yl]acetyl}octahydropyrazino[2,1-c][1,4]oxazin-3-yl]benzonitrile] | 80
Cc1cc(-n2cnnn2)ncc1CC(=O)N1CCN2C[C@H](c3ccc4c(c3C)COC4=O)OC[C@@H]2C1 [Example 42, 4-methyl-5-[(3S,9aS)-8-{[4-methyl-6-(1H-tetrazol-1-yl)pyridin-3-yl]acety}octahydropyrazino[2,1-c][1,4]oxazin-3-yl]-2-benzofuran-1(3H)-one] | 210
Cc1cc(-n2cnnn2)ncc1CC(=O)N1CCN2C[C@H](c3ccc(F)c(C#N)c3C)OC[C@@H]2C1 [Example 43, 6-fluoro-2-methyl-3-[(3S,9aS)-8-{[4-methyl-6-(1H-tetrazol-1-vl)pvridin-3-yl]acetyl}octahydropyrazino[2,1-c][1,4]oxazin-3-yl]benzonitrile] | 90
O=C1OCc2c1ccc([C@@H]1CN3CCN(C(=O)Cc4ccc(-n5cnnn5)nc4)C[C@H]3CO1)c2Cl [Example 46, 4-chloro-5-[(3R,9aS)-8-{[6-(1H-tetrazol-1-yl)pyridin-3-yl]acetyl}octahydropyrazino[2,1-c][1,4]oxazin-3-yl]-2-benzofuran-1(3H)-one] | 670
O=C1OCc2c1ccc([C@H]1CN3CCN(C(=O)Cc4ccc(-n5cnnn5)nc4)C[C@H]3CO1)c2Cl [Example 47, 4-chloro-5-[(3S,9aS)-8-{[6-(1H-tetrazol-1-yl)pyridin-3-yl]acetyl}octahydropyrazino[2,1-c][1,4]oxazin-3-yl]-2-benzofuran-1(3H)-one] | 90
COc1ccc([C@H]2CN3CCN(C(=O)Cc4ccc(-n5cnnn5)nc4)C[C@H]3CO2)c(C)c1C#N [Example 49, 6-methoxy-2-methyl-3-[(3S,9aS)-8-{[6-(1H-tetrazol-1-vl)pvridin-3-yl]acetyl}octahydropyrazino[2,1-c][1,4]oxazin-3-yl]benzonitrile] | 290
N#Cc1c(F)ccc([C@H]2CN3CCN(C(=O)Cc4ccc(-n5cnnn5)cn4)C[C@H]3CO2)c1Cl [Example 52, 2-chloro-6-fluoro-3-[(3S,9aS)-8-{[5-(1H-tetrazol-1-yl)pyridin-2-yl]acetyl}octahydropyrazino[2,1-c][1,4]oxazin-3-yl]benzonitrile] | 110
